The results in this text go back to the supplement of paper PMC3974653.

Counter-ions that a name gives are not always drawn.

The assay deals with MTT (mouse pheochromocytoma). Nature of the assay: IC50 of cell viability (ATP content). As to conditions: (24 or 48 h). The method, boiled down:
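MTT mouse pheochromocytoma cells were seeded into white 1536-well plates at 5 µl per well from a 200,000 cells/ml suspension in DMEM with 5% FBS and 1% horse serum, then cultured overnight at 37°C, 5% CO2. A pintool added 23 nl of library compound in DMSO at 8 concentrations (final 0.5 nM to 46 µM) for 24 or 48 hrs, and CellTiter-Glo ATP luminescence was read after 15 minutes. Signals were scaled so that positive-control wells equalled 100% and DMSO wells 0%. IC50 values were derived by fitting a four-parameter logistic curve.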
On to `O=C(O)C(Cc1cc(I)c(O)c(I)c1)c1ccccc1` (stereo not drawn) [PHENIODOLUM NATRICUM], for which the “IC50 of cell viability” value was greater than 46 µM.

Take `O=S(=O)([O-])c1ccc(O)cc1` [PHENOLSULFONIC ACID]: the “IC50 of cell viability” value was greater than 46 µM.

Consider `CC(C)=CC1C(C(=O)OCc2cccc(Oc3ccccc3)c2)C1(C)C` (stereo not drawn) [PHENOTHRIN], for which the “IC50 of cell viability” value is greater than 46 µM.

Turning to `CC1=CC=C(C=C1)N(C\C2=N\CCN2)C3=CC=CC(=C3)O` [PHENTOLAMINE], the “IC50 of cell viability” value is greater than 46 µM.

With `CCCCC1C(=O)N(c2ccccc2)N(c2ccccc2)C1=O` [PHENYLBUTAZONE], the “IC50 of cell viability” value was greater than 46 µM.

`NNc1ccccc1` [PHENYLHYDRAZINE HYDROCHLORIDE]: the “IC50 of cell viability” value was greater than 46 µM.

`CCC(O)c1ccccc1` (stereo not drawn) [PHENYLPROPANOL]: the “IC50 of cell viability” value was greater than 46 µM.

With `CN(C)CCOc1ccccc1Cc1ccccc1` [PHENYLTOLOXAMINE CITRATE], the “IC50 of cell viability” value is greater than 46 µM.

For `O=C1NC(=O)C(c2ccccc2)(c2ccccc2)N1` [PHENYTOIN], the “IC50 of cell viability” value is greater than 46 µM.

With `Oc1cc(O)cc(O)c1` [PHLOROGLUCINOL], the “IC50 of cell viability” value is greater than 46 µM.

For `CCN(CC)C(=O)/C(Cl)=C(\C)OP(=O)(OC)OC` [PHOSPHAMIDON], the “IC50 of cell viability” value was greater than 46 µM.

`O=C(O)c1ccccc1C(=O)Nc1ccc([S+](=O)([O-])Nc2nccs2)cc1` [PHTHALYLSULFATHIAZOLE]: the “IC50 of cell viability” value is greater than 46 µM.

As for `CCCCCCCCCCCCCCCC(=O)O[C@@H]1CC(C)=C(\C=C/C(C)=C\C=C/C(C)=C\C=C\C=C(C)\C=C\C=C(C)\C=C\C2=C(C)C[C@@H](OC(=O)CCCCCCCCCCCCCCC)CC2(C)C)C(C)(C)C1` [PHYSALIEN with TLC], the “IC50 of cell viability” value was greater than 46 µM.

As to `CNC(=O)Oc1ccc2c(c1)[C@]1(C)CCN(C)[C@@H]1N2C` [PHYSOSTIGMINE], the “IC50 of cell viability” value is greater than 46 µM.

Regarding `Nc1c(NC/C=C\COc2cc(CN3CCCCC3)ccn2)c(=O)c1=O` [PIBUTIDINE HYDROCHLORIDE], the “IC50 of cell viability” value is greater than 46 µM.

For the compound `Cc1ccccn1` [PICOLINE, ALPHA], the “IC50 of cell viability” value is greater than 46 µM.

For the compound `CC(C)(O)C1C2OC(=O)C1C1(O)CC3OC34C(=O)OC2C14C` (stereo not drawn) [PICROTOXIN], the “IC50 of cell viability” value is greater than 46 µM.

Take `Clc1ccccc1-c1nc(-c2ccncc2)no1` [PIFEXOLUM]: the “IC50 of cell viability” value was greater than 46 µM.

Regarding `CC[C@@H]1C(=O)OC[C@@H]1Cc1cncn1C` [PILOCARPINE], the “IC50 of cell viability” value is greater than 46 µM.

Consider `Cc1cccc(C)c1NC(=O)CC12CCCN1CCC2` [PILSICAINIDE HYDROCHLORIDE], for which the “IC50 of cell viability” value was greater than 46 µM.

`CC[C@@H]1/C=C(\C)C[C@H](C)C[C@H](OC)[C@H]2O[C@@](O)(C(=O)C(=O)N3CCCC[C@H]3C(=O)O[C@H](/C(C)=C/[C@@H]3CC[C@H](Cl)[C@H](OC)C3)[C@H](C)[C@@H](O)CC1=O)[C@H](C)C[C@@H]2OC` [PIMECROLIMUS]: the “IC50 of cell viability” value is greater than 46 µM.

Turning to `COc1ccc(-c2nc3ccc(C4=C(C)CC(=O)NN4)cc3[nH]2)cc1` [PIMOBENDAN], the “IC50 of cell viability” value was greater than 46 µM.

Turning to `CC(N/C(=N\C#N)Nc1ccncc1)C(C)(C)C` (stereo not drawn) [PINACIDIL], the “IC50 of cell viability” value is greater than 46 µM.

Regarding `Cc1cccc(C)c1NC(=O)CN1CCCCCC1` [PINCAINIDUM], the “IC50 of cell viability” value was greater than 46 µM.

With `CC(C)NCC(O)COc1cccc2[nH]ccc12` (stereo not drawn) [PINDOLOL], the “IC50 of cell viability” value was greater than 46 µM.

On to `CCc1ccc(CCOc2ccc(CC3SC(=O)NC3=O)cc2)nc1.Cl` (stereo not drawn) [PIOGLITAZONE HYDROCHLORIDE], for which the “IC50 of cell viability” value was greater than 46 µM.

On to `NC(=O)C1(N2CCCCC2)CCN(CCCC(=O)c2ccc(F)cc2)CC1` [PIPAMPERONE HYDROCHLORIDE], for which the “IC50 of cell viability” value is greater than 46 µM.

Regarding `CC[N+]1(C)CCCC(OC(=O)C(O)(c2ccccc2)c2ccccc2)C1.[Br-]` (stereo not drawn) [PIPENZOLATE BROMIDE], the “IC50 of cell viability” value is greater than 46 µM.

On to `S=C(S)N1CCNCC1` [PIPERAZINE-CARBON DISULFIDE COMPLEX], for which the “IC50 of cell viability” value is greater than 46 µM.

Turning to `CC1CCCCN1CCCOC(=O)c1ccccc1` (stereo not drawn) [PIPEROCAINE HYDROCHLORIDE], the “IC50 of cell viability” value is greater than 46 µM.

Turning to `c1ccc2c(c1)OCC(CN1CCCCC1)O2` (stereo not drawn) [PIPEROXANUM], the “IC50 of cell viability” value was greater than 46 µM.

For the compound `O=C(OCCN1CCCCC1)C(O)(c1ccccc1)c1ccccc1` [PIPETHANATE HYDROCHLORIDE], the “IC50 of cell viability” value was greater than 46 µM.

`O=C(CCBr)N1CCN(C(=O)CCBr)CC1` [PIPOBROMAN]: the “IC50 of cell viability” value was greater than 46 µM.

Turning to `O=C([O-])c1cc(O)c2c3nc4ccccc4oc-3cc(=O)c2n1` [PIRENOXINE], the “IC50 of cell viability” value was greater than 46 µM.

For `CC/1=C(CCN2CCC(CC2)C(=O)C3=CC=C(F)C=C3)/C(=O)N4\C=C/C=C\C4=N1` [PIRENPERONE], the “IC50 of cell viability” value was greater than 46 µM.

For the compound `CN1CCN(CC(=O)N2c3ccccc3C(=O)Nc3cccnc32)CC1` [PIRENZEPINE], the “IC50 of cell viability” value was greater than 46 µM.

Consider `c1cnc(N2CCN(Cc3ccc4c(c3)OCO4)CC2)nc1` [PIRIBEDIL], for which the “IC50 of cell viability” value was greater than 46 µM.

Take `CN1CC\C(CC1)=C2\C3=C(CCC4=CC=CC=C24)SC=C3` [PIZOTIFEN]: the “IC50 of cell viability” value was greater than 46 µM.

For the compound `CCC(C)CCCCC(=O)NC(CCN)C(=O)NC(C(=O)NC(CCN)C(=O)NC1CCNC(=O)C(C(C)O)NC(=O)C(CCN)NC(=O)C(CCN)NC(=O)C(CC(C)C)NC(=O)C(Cc2ccccc2)NC(=O)C(CCN)NC1=O)C(C)O.O=[S+]([O-])(O)O` (stereo not drawn) [POLYMYXIN B SULFATE], the “IC50 of cell viability” value was greater than 46 µM.

As for `O=P([O-])([O-])OC[C@@H](O)CO` [POTASSIUM GLYCEROPHOSPHATE], the “IC50 of cell viability” value was greater than 46 µM.

With `CCCCCCC(O)C/C=C/CCCCCCCC(=O)O` (stereo not drawn) [POTASSIUM RICINOLEATE], the “IC50 of cell viability” value is greater than 46 µM.

In the case of `CCCCCC[C@@H](O)C/C=C\CCCCCCCC(=O)O` [POTASSIUM RICINOLEATE], the “IC50 of cell viability” value was greater than 46 µM.

Take `CC(=O)Nc1ccc(OCC(O)CNC(C)C)cc1` (stereo not drawn) [PRACTOLOL]: the “IC50 of cell viability” value is greater than 46 µM.

Take `CCCN[C@H]1CCc2nc(N)sc2C1` [PRAMIPEXOLE DIHYDROCHLORIDE]: the “IC50 of cell viability” value was greater than 46 µM.

Take `CC(C)[N+](C)(C)CC(O)COc1cccc2ccccc12` (stereo not drawn) [PRANOLII CHLORIDUM]: the “IC50 of cell viability” value is greater than 46 µM.

For `CC(C(=O)O)c1ccc2c(c1)Cc1cccnc1O2` (stereo not drawn) [PRANOPROFEN], the “IC50 of cell viability” value was greater than 46 µM.

As for `N=C(N)n1cccn1` [PRAXADINUM], the “IC50 of cell viability” value was greater than 46 µM.

On to `ClC1=CC=C2N(CC3CC3)C(=O)C\N=C(\C4=CC=CC=C4)C2=C1` [PRAZEPAM], for which the “IC50 of cell viability” value was greater than 46 µM.

For `CC(=O)OCC(=O)[C@@]1(O)CCC2C3CCC/4=C/C(=O)/C=C\C4(C)C3C(O)C[C@@]12C` (stereo partly drawn) [PREDNISOLONE ACETATE], the “IC50 of cell viability” value is greater than 46 µM.

Turning to `C[C@@]12CC(O)C3C(CCC/4=C/C(=O)/C=C\[C@]34C)C1CC[C@]2(O)C(=O)CO` (stereo partly drawn) [PREDNISOLONE], the “IC50 of cell viability” value was greater than 46 µM.

For `CC(C)CC(CN)CC(=O)O` (stereo not drawn) [PREGABALIN], the “IC50 of cell viability” value was greater than 46 µM.

As to `CC[N+]1(CC)CCC(=C(c2ccccc2)c2ccccc2)C1C` (stereo not drawn) [PRIFINIUM BROMIDE], the “IC50 of cell viability” value is greater than 46 µM.

`CCC1(c2ccccc2)C(=O)NCNC1=O` [PRIMIDONE]: the “IC50 of cell viability” value was greater than 46 µM.

Turning to `CCCC(C(=O)OCCN(CC)CC)(c1ccccc1)c1ccccc1.Cl` [PROADIFEN HYDROCHLORIDE], the “IC50 of cell viability” value was greater than 46 µM.

Consider `CCN(CC)CCNC(=O)c1ccc(N)cc1` [PROCAINAMIDE], for which the “IC50 of cell viability” value is greater than 46 µM.

Consider `CC[C@H](NC(C)C)[C@H](O)C1=CC=C(O)C2=C1\C=C/C(=O)N2` [PROCATEROL], for which the “IC50 of cell viability” value is greater than 46 µM.

In the case of `O=C(O)CCc1nc2ccccc2[nH]1` [PROCODAZOLUM], the “IC50 of cell viability” value is greater than 46 µM.

As for `CC(CN1c2ccccc2Sc2ccccc21)N(C)C` (stereo not drawn) [PROMETHAZINE], the “IC50 of cell viability” value is greater than 46 µM.

Consider `CC(C)NCC(O)c1ccc2ccccc2c1` (stereo not drawn) [PRONETHALOL], for which the “IC50 of cell viability” value is greater than 46 µM.

For the compound `CC(C)[N+](C)(CCOC(=O)C1c2ccccc2Oc2ccccc21)C(C)C.[Br-]` [PROPANTHELINE BROMIDE], the “IC50 of cell viability” value was greater than 46 µM.

Take `CCCn1cnc2c1c(=O)n(CCCCC(C)=O)c(=O)n2C` [PROPENTOFYLLINE]: the “IC50 of cell viability” value is greater than 46 µM.

For `CCCOC(C(=O)OC1CCN(C)CC1)(c1ccccc1)c1ccccc1` [PROPIVERINE HYDROCHLORIDE], the “IC50 of cell viability” value is greater than 46 µM.

In the case of `CC(C)c1cccc(C(C)C)c1O` [PROPOFOL], the “IC50 of cell viability” value is greater than 46 µM.

As to `CCCOC(=O)c1ccccc1` [PROPYL BENZOATE], the “IC50 of cell viability” value was greater than 46 µM.

Regarding `CCCOC(=O)c1ccccc1O` [PROPYL SALICYLATE], the “IC50 of cell viability” value was greater than 46 µM.

Take `CCCCCCCCCCCCCCCCCC(=O)OCC(C)O` (stereo not drawn) [PROPYLENE GLYCOL STEARATE SE]: the “IC50 of cell viability” value is greater than 46 µM.

With `CCCc1cc(C(N)=S)ccn1` [PROTHIONAMIDE], the “IC50 of cell viability” value is greater than 46 µM.

For the compound `NC(=O)[C@@H]1CCCN1C(=O)[C@H](Cc1cnc[nH]1)NC(=O)[C@@H]1CCC(=O)N1` [PROTIRELIN], the “IC50 of cell viability” value is greater than 46 µM.
